Laboratory results published in ChEMBL document CHEMBL5365543, “Benzamidine Conjugation Converts Expelled Potential Active Agents into Antifungals against Drug-Resistant Fungi” (J Med Chem, 2023).
Calls of active or inactive are those of the source.

Assays:
[1] = Selectivity ratio of IC50 for cytotoxicity against human HBE cells to MIC80 for antifungal activity against wild-type Candida albicans SC5314; assay type: toxicity, cell-based
Candida albicans [2] = assay: Antifungal activity against wild-type Candida albicans SC5314 assessed as inhibition of fungal growth measured after 24 hrs by CLSI based microtiter plate analysis; assay type: functional
Candida albicans [3] = assay: (§1) Antifungal activity against clinical isolate fluconazole-resistant Candida albicans Gu5 infected in BALB/c mouse assessed as reduction in renal neutrophil infiltration at 6 mg/kg, ip administered on day 1 and day 3 post fungal infection measured after 7 days by periodic acid-schiff/hematoxylin and eosin staining based microscopic analysis; assay type: functional, organism-based; conditions: time 7.0 day
Candida albicans [4] = assay: Antifungal activity against clinical isolate Candida albicans YEM13 overexpressing efflux pump MdrL assessed as inhibition of fungal growth measured after 24 hrs by CLSI based microtiter plate analysis; assay type: functional
Candida albicans [5] = assay: Antifungal activity against clinical isolate Candida albicans SCMRRIR34MPG2A harbouring MRR1 mutation overexpressing efflux pump MdrL assessed as inhibition of fungal growth measured after 24 hrs by CLSI based microtiter plate analysis; assay type: functional
Candida albicans [6] = assay: Antifungal activity against clinical isolate fluconazole-resistant Candida albicans DSY296 harbouring TAC1 mutation overexpressing efflux pump CdrL and Cdr2 assessed as inhibition of fungal growth measured after 24 hrs by CLSI based microtiter plate analysis; assay type: functional
Candida albicans [7] = assay: Antifungal activity against clinical isolate fluconazole-resistant Candida albicans G5 harbouring MRR1 mutation overexpressing MdrL assessed as inhibition of fungal growth measured after 24 hrs by CLSI based microtiter plate analysis; assay type: functional
Candida albicans [8] = assay: Antifungal activity against clinical isolate fluconazole-resistant Candida albicans Gu5 harbouring TAC1 mutation overexpressing efflux pump CdrL and Cdr2 assessed as inhibition of fungal growth measured after 24 hrs by CLSI based microtiter plate analysis; assay type: functional
[Candida] auris [9] = Antifungal activity against clinical isolate fluconazole-resistant Candida auris CBS12774 assessed as inhibition of fungal growth measured after 24 hrs by CLSI based microtiter plate analysis; assay type: functional; conditions: Candidozyma auris
[Candida] auris [10] = Antifungal activity against clinical isolate fluconazole-resistant Candida auris CBS12776 assessed as inhibition of fungal growth measured after 24 hrs by CLSI based microtiter plate analysis; assay type: functional; conditions: Candidozyma auris
Nakaseomyces glabratus = assay: Antifungal activity against clinical isolate fluconazole-resistant Candida glabrata CG2 assessed as inhibition of fungal growth measured after 24 hrs by CLSI based microtiter plate analysis; assay type: functional
Cryptococcus neoformans = assay: Antifungal activity against clinical isolate fluconazole-resistant Cryptococcus neoformans H99 assessed as inhibition of fungal growth measured after 24 hrs by CLSI based microtiter plate analysis; assay type: functional
Candida tropicalis = assay: Antifungal activity against clinical isolate fluconazole-resistant Candida tropicalis CT10 assessed as inhibition of fungal growth measured after 24 hrs by CLSI based microtiter plate analysis; assay type: functional
Candida albicans [11] = assay: as §1, with “kidney fungal infection” for “renal neutrophil infiltration”; assay type: functional, organism-based; conditions: time 7.0 day
[12] = Drug accumulation in wild-type Candida albicans SC5314 at 50 microg/ml incubated for 3 hrs by HPLC analysis; assay type: ADME; conditions: dose 50 µg/ml
Candida albicans [13] = assay: Antifungal activity against wild-type Candida albicans SC5314 assessed as decrease in viable count measured after 24 hrs by colony-counting based time-killing kinetics assay; assay type: functional, organism-based; conditions: dose 2-4 µg/ml
Candida albicans [14] = assay: Antifungal activity against wild-type Candida albicans SC5314 assessed as decrease in viable count at 2 to 4 microg/ml by colony-counting based time-killing kinetics assay; assay type: functional, organism-based; conditions: dose 2-4 µg/ml, time 24.0 hrs, TDE = time-dependent effect
Candida albicans [15] = assay: Antifungal activity against fluconazole-resistant clinical isolate Candida albicans Gu5 assessed as decrease in viable count measured after 24 hrs by colony-counting based time-killing kinetics assay; assay type: functional, organism-based; conditions: dose 2-4 µg/ml
Candida albicans [16] = assay: Antifungal activity against fluconazole-resistant clinical isolate Candida albicans Gu5 assessed as decrease in viable count at 2 to 4 microg/ml by colony-counting based time-killing kinetics assay; assay type: functional, organism-based; conditions: dose 2-4 µg/ml, time 24.0 hrs, TDE = time-dependent effect
[Candida] auris [17] = Antifungal activity against clinical isolate fluconazole-resistant Candida auris CBS12774 assessed as decrease in viable count measured after 24 hrs by colony-counting based time-killing kinetics assay; assay type: functional, organism-based; conditions: Candidozyma auris, dose 2-4 µg/ml
[Candida] auris [18] = Antifungal activity against clinical isolate fluconazole-resistant Candida auris CBS12774 assessed as decrease in viable count at 2 to 4 microg/ml by colony-counting based time-killing kinetics assay; assay type: functional, organism-based; conditions: Candidozyma auris, dose 2-4 µg/ml, time 24.0 hrs, TDE = time-dependent effect
[19] = Selectivity ratio of IC50 for cytotoxicity against human HBE cells to MIC80 for antifungal activity against clinical isolate fluconazole-resistant Candida glabrata CG2; assay type: toxicity, cell-based
[20] = Selectivity ratio of IC50 for cytotoxicity against human HBE cells to MIC80 for antifungal activity against clinical isolate Candida albicans YEM13 overexpressing efflux pump MdrL; assay type: toxicity, cell-based
[21] = Selectivity ratio of IC50 for cytotoxicity against human HBE cells to MIC80 for antifungal activity against clinical isolate Candida albicans SCUPC2R14MPG2A harbouring UPC2 mutation overexpressing […]; assay type: toxicity, cell-based
[22] = Selectivity ratio of IC50 for cytotoxicity against human HBE cells to MIC80 for antifungal activity against clinical isolate fluconazole-resistant Candida albicans G5 harbouring MRR1 mutation overexpressing MdrL; assay type: toxicity, cell-based
[23] = Selectivity ratio of IC50 for cytotoxicity against human HBE cells to MIC80 for antifungal activity against clinical isolate fluconazole-resistant Candida albicans Gu5 harbouring TAC1 mutation overexpressing efflux pump CdrL and Cdr2; assay type: toxicity, cell-based
[24] = Selectivity ratio of IC50 for cytotoxicity against human HBE cells to MIC80 for antifungal activity against clinical isolate fluconazole-resistant Candida albicans CA632; assay type: toxicity, cell-based
[25] = Selectivity ratio of IC50 for cytotoxicity against human HBE cells to MIC80 for antifungal activity against clinical isolate fluconazole-resistant Candida auris CBS12776; assay type: toxicity, cell-based
[26] = Selectivity ratio of IC50 for cytotoxicity against human HBE cells to MIC80 for antifungal activity against clinical isolate fluconazole-resistant Cryptococcus neoformans H99; assay type: toxicity, cell-based
Candida albicans [27] = assay: Inhibition of biofilm formation in wild-type Candida albicans SC5314 at 2 microg/ml measured after 24 hrs by alamar blue staining based colorimetric analysis; assay type: functional, organism-based; conditions: dose 2.0 µg/ml
Candida albicans [28] = assay: Inhibition of biofilm formation in wild-type Candida albicans SC5314 at 8 microg/ml measured after 24 hrs by alamar blue staining based colorimetric analysis; assay type: functional
Candida albicans [29] = assay: Inhibition of biofilm formation in fluconazole-resistant clinical isolate Candida albicans Gu5 at 8 microg/ml measured after 24 hrs by alamar blue staining based colorimetric analysis; assay type: functional
[Candida] auris [30] = Inhibition of biofilm formation in clinical isolate fluconazole-resistant Candida auris CBS12774 measured after 24 hrs by alamar blue staining based colorimetric analysis; assay type: functional, organism-based; conditions: Candidozyma auris, dose 4-32 µg/ml
[31] = Toxicity in BALB/c mouse infected with clinical isolate fluconazole-resistant Candida albicans Gu5 assessed as animal survival rate at 6 mg/kg, ip administered on day 1 and day 3 post fungal infection measured after 7 days; assay type: organism-based; conditions: in vivo, 168 h, time 7 day
Candida albicans [32] = assay: Antifungal activity against clinical isolate fluconazole-resistant Candida albicans Gu5 infected in BALB/c mouse assessed as fold reduction in kidney fungal burden at 6 mg/kg, ip administered on day 1 and day 3 post fungal infection measured after 7 days; assay type: functional; conditions: time 7 day

C=C1C(=O)[C@@]2(C)CC[C@@H]3[C@@]1(CC[C@H]1[C@@]3(C)CCC[C@@]1(C)C(=O)OCCCOc1ccc(C(=N)N)cc1)C2
Active: Drug uptake [12]
active: Activity (Candida albicans [3]) | Activity (Candida albicans [11]) | Activity (Candida albicans [13]) Dose-Dependent Effect | Activity (Candida albicans [14]) Tde | Activity (Candida albicans [15]) Dose-Dependent Effect | Activity (Candida albicans [16]) Tde | Activity ([Candida] auris [17]) Dose-Dependent Effect | Activity ([Candida] auris [18]) Tde | inhibition (Candida albicans [27]) | inhibition ([Candida] auris [30]) Dose-Dependent Effect
40%: Survival [31]
~50: fold change (FC) (Candida albicans [32])
inactive: MIC (Candida albicans [2])
2 µg/mL: MIC80 (Candida albicans [5]) | MIC80 (Candida albicans [6]) | MIC80 (Candida albicans [8]) | MIC80 ([Candida] auris [9]) | MIC80 ([Candida] auris [10]) | MIC80 (Nakaseomyces glabratus) | MIC80 (Cryptococcus neoformans) | MIC80 (Candida tropicalis)
81.5%: inhibition at 8 µg/mL (Candida albicans [29])
~80.2%: inhibition at 8 µg/mL (Candida albicans [28])
1 µg/mL: MIC80 (Candida albicans [2]; Candida albicans, SC5314, 24 h, read-out: MIC80) | MIC80 (Candida albicans [4]) | MIC80 (Candida albicans [7])
8: selectivity ratio [1] | selectivity ratio [19] | selectivity ratio [20] | selectivity ratio [21] | selectivity ratio [22] | selectivity ratio [23] | selectivity ratio [24] | selectivity ratio [25] | selectivity ratio [26]
